Experimental data published in patent US20080125445A1, “5,6-Dialkyl-7-Amino-Azolopyrimidines, Method For Their Production, Their Use For Controlling Pathogenic Fungi and Agents Containing Said Compounds” (BASF Aktiengesellschaft, priority 2005, published 2008).

Tested on: Plasmopara viticola
Assay: Activity against Peronospora of grapevines caused by Plasmopara viticola (comparative test, protective spray)
Assay type: in vivo
Conditions: leaves of potted grapevines sprayed to runoff, inoculated next day; infection on undersides of leaves determined visually; untreated 100%; active compound concentration not given
Experimental: The active compounds were prepared as a stock solution comprising 25 mg of active compound which was made up to 10 ml using a mixture of acetone and/or DMSO and the emulsifier Uniperol® EL (wetting agent having emulsifying and dispersing action based on ethoxylated alkylphenols) in a volume ratio of solvent/emulsifier of 99/1. The mixture was then made up to 100 ml with water. This stock solution was diluted with the solvent/emulsifier/water mixture described to the concentration of active compounds stated below. Leaves of potted grapevines were sprayed to runoff point with an aqueous suspension having the concentration of active compound stated below. The next day, the undersides of the leaves were inoculated with an aqueous sporangia suspension of Plasmopara viticola. The grapevines were then initially placed in a water vapor-saturated chamber at 24° C. for 48 hours and then in a greenhouse at temperatures between 20 and 30° C. for 5 days. After this time, the plants were again placed into a moist chamber for 16 hours to accelerate sporangiophore eruption. The extent of the development of the infection on the undersides of the leaves was then determined visually.

Structure (SMILES) | Infection in % [%]
CCCCc1nc2cc(C)nn2c(N)c1CCCC [Compound 17] | 25
CCCCCc1nc2cc(C)nn2c(N)c1CCCCC [Compound I-1, 2-methyl-5,6-dipentylpyrazolo[1,5-a]pyrimidin-7-ylamine] | 3
